Values after ≈ are worked out from the molar mass of the structure shown. Values joined by “and” are separate entries in the source; they are usually repeats but may differ in a detail not shown here. Equal values may be shown once. One block for each compound: values may come before it.
Legend:
Experiment in all cases: ≥ marks a high value that may be exact or a test limit, other limits are often not marked, values filed in µg/mL are converted to µM
[1] = tested on: Bacillus subtilis ISW 1214
Escherichia coli BL21 = tested on: Escherichia coli BL21
[2] = tested on: Bacillus subtilis KCTC 3038
[3] = tested on: Candida albicans ATCC 10231
[4] = tested on: Cryptococcus neoformans ATCC 34881
[5] = tested on: Enterococcus faecalis ATCC 29212
[6] = tested on: Escherichia coli ATCC 27325
[7] = tested on: Micrococcus luteus ATCC 10240
[8] = tested on: Pseudomonas aeruginosa ATCC 27853
[9] = tested on: Saccharomyces cerevisiae ATCC 44774
[10] = tested on: Salmonella typhimurium KCTC 2370
[11] = tested on: Staphylococcus aureus ATCC 15752
Bacillus subtilis = tested on: Bacillus subtilis
Candida albicans = tested on: Candida albicans
Escherichia coli ML-35p = tested on: Escherichia coli ML-35p
[12] = tested on: Listeria monocytogenes EGD
[13] = tested on: Neisseria gonorrhoeae F62
[14] = tested on: Neisseria gonorrhoeae FA19
[15] = tested on: Pseudomonas aeruginosa MR3007
[16] = tested on: Staphylococcus aureus 930918-3
[17] = tested on: Acinetobacter baumannii CCARM 12005
[18] = tested on: Acinetobacter baumannii CCARM 12035
[19] = tested on: Acinetobacter baumannii CCARM 12036
[20] = tested on: Acinetobacter baumannii CCARM 12037
[21] = tested on: Bacillus subtilis KCTC 1021
[22] = tested on: Bacillus subtilis KCTC 1022
[23] = tested on: Bacillus subtilis KCTC 3068
[24] = tested on: Escherichia coli CCARM 1229
[25] = tested on: Escherichia coli CCARM 1238
[26] = tested on: Escherichia coli KCTC 1682
[27] = tested on: Escherichia coli KCTC 2571
[28] = tested on: Escherichia coli KCTC 2593
[29] = tested on: Pseudomonas aeruginosa CCARM 2002
[30] = tested on: Pseudomonas aeruginosa CCARM 2003
[31] = tested on: Pseudomonas aeruginosa CCARM 2095
[32] = tested on: Pseudomonas aeruginosa CCARM 2163
[33] = tested on: Pseudomonas aeruginosa KCTC 1637
[34] = tested on: Pseudomonas aeruginosa KCTC 2004
[35] = tested on: Pseudomonas aeruginosa KCTC 2513
[36] = tested on: Salmonella typhimurium CCARM 8003
[37] = tested on: Salmonella typhimurium CCARM 8007
[38] = tested on: Salmonella typhimurium CCARM 8009
[39] = tested on: Salmonella typhimurium KCTC 1926
[40] = tested on: Staphylococcus aureus CCARM 3089
[41] = tested on: Staphylococcus aureus CCARM 3090
[42] = tested on: Staphylococcus aureus CCARM 3108
[43] = tested on: Staphylococcus aureus CCARM 3114
[44] = tested on: Staphylococcus aureus CCARM 3126
[45] = tested on: Staphylococcus aureus KCTC 1621
[46] = tested on: Staphylococcus aureus KCTC 1916
[47] = tested on: Staphylococcus aureus KCTC 3881
[48] = tested on: Staphylococcus epidermidis KCTC 1917

MIC [1]: 2.5 µM (≈ 7.9 µg/mL)
MIC (Escherichia coli BL21): ≥ 160 µM
SMILES: CC(=O)NCC(=O)N[C@@H](Cc1c[nH]c2ccccc12)C(=O)N[C@@H](CC(C)C)C(=O)N[C@@H](CCC(N)=O)C(=O)N[C@@H](CC(C)C)C(=O)N[C@@H](C)C(=O)N[C@@H](CCC(N)=O)C(=O)N[C@@H](Cc1cnc[nH]1)C(=O)N[C@@H](CC(C)C)C(=O)N[C@@H](CC(C)C)C(=O)N[C@@H](CCC(N)=O)C(=O)N[C@@H](CC(C)C)C(=O)NCC(=O)N[C@@H](CCC(N)=O)C(=O)N[C@@H](Cc1cnc[nH]1)C(=O)N[C@@H](CC(C)C)C(=O)N[C@@H](CC(C)C)C(=O)N[C@@H](CCC(N)=O)C(=O)N[C@@H](CC(C)C)C(=O)N[C@@H](C)C(=O)N[C@@H](CCC(N)=O)C(=O)N[C@@H](CCC(N)=O)C(=O)N[C@@H](CC(C)C)C(=O)N[C@@H](CCCN=C(N)N)C(=O)N[C@@H](CCCN=C(N)N)C(=O)N[C@@H](CCCN=C(N)N)C(N)=O [GWLQLAQHLLQLGQHLLQLAQQLRRR]

MIC [2]: ≥ 36.6 µM
MIC [3]: 36.6 µM (≈ 64 µg/mL)
MIC [4]: ≥ 36.6 µM
MIC [5]: > 36.6 µM
MIC [6]: ≥ 36.6 µM
MIC [7]: ≥ 36.6 µM
MIC [8]: 9.15 µM (≈ 16 µg/mL)
MIC [9]: 18.3 µM (≈ 32 µg/mL)
MIC [10]: ≥ 36.6 µM
MIC [11]: ≥ 36.6 µM
SMILES: CC(C)[C@H](NC(=O)CNC(=O)[C@H](CCC(N)=O)NC(=O)[C@@H](NC(=O)[C@@H](NC(=O)[C@@H]1CCCN1C(=O)[C@H](CCCN=C(N)N)NC(=O)[C@@H](NC(=O)[C@@H](NC(=O)[C@@H](N)CCCN=C(N)N)C(C)C)C(C)C)C(C)C)C(C)C)C(=O)N[C@@H](CCCCN)C(=O)N[C@@H](CCC(N)=O)C(=O)N[C@@H](CCCCN)C(=O)N[C@H](C(=O)N[C@@H](CCCN=C(N)N)C(=O)O)C(C)C [RVVRPVVQGVKQKVR]

MIC (Bacillus subtilis): 0.22 µM and 0.21 µM
MIC (Candida albicans): 7.58 µM (≈ 11.5 µg/mL)
MIC (Escherichia coli ML-35p): 0.28 µM and 0.26 µM
MIC [12]: 0.26 µM and 0.55 µM
MIC [13]: 0.64 µM (≈ 0.97 µg/mL)
MIC [14]: 1.34 µM (≈ 2.03 µg/mL)
MIC [15]: 0.2 µM and 0.29 µM
MIC [16]: 0.33 µM and 0.4 µM
SMILES: CC(C)C[C@H](N)C(=O)N[C@H]1CSSC[C@@H](C(=O)N[C@H](C(N)=O)C(C)C)NC(=O)[C@H](C(C)C)NC(=O)[C@@H]2CSSC[C@H](NC(=O)[C@H](Cc3ccc(O)cc3)NC1=O)C(=O)N[C@@H](CCCN=C(N)N)C(=O)N[C@@H](CCCN=C(N)N)C(=O)N[C@@H](CCCN=C(N)N)C(=O)N[C@@H](Cc1ccccc1)C(=O)N2 [LCYCRRRFCVCV]

MIC [17]: 2 µM (≈ 5.2 µg/mL)
MIC [18]: 2 µM (≈ 5.2 µg/mL)
MIC [19]: 2 µM (≈ 5.2 µg/mL)
MIC [20]: 2 µM (≈ 5.2 µg/mL)
MIC [21]: 4 µM (≈ 10.4 µg/mL)
MIC [22]: 2 µM (≈ 5.2 µg/mL)
MIC [23]: 1 µM (≈ 2.6 µg/mL)
MIC [24]: 4 µM (≈ 10.4 µg/mL)
MIC [25]: 4 µM (≈ 10.4 µg/mL)
MIC [26]: 1 µM (≈ 2.6 µg/mL)
MIC [27]: 2 µM (≈ 5.2 µg/mL)
MIC [28]: 2 µM (≈ 5.2 µg/mL)
MIC [29]: 2 µM (≈ 5.2 µg/mL)
MIC [30]: 2 µM (≈ 5.2 µg/mL)
MIC [31]: 2 µM (≈ 5.2 µg/mL)
MIC [32]: 2 µM (≈ 5.2 µg/mL)
MIC [33]: 1 µM (≈ 2.6 µg/mL)
MIC [34]: 2 µM (≈ 5.2 µg/mL)
MIC [35]: 2 µM (≈ 5.2 µg/mL)
MIC [36]: 8 µM (≈ 20.8 µg/mL)
MIC [37]: 4 µM (≈ 10.4 µg/mL)
MIC [38]: 4 µM (≈ 10.4 µg/mL)
MIC [39]: 1 µM (≈ 2.6 µg/mL)
MIC [40]: 8 µM (≈ 20.8 µg/mL)
MIC [41]: 8 µM (≈ 20.8 µg/mL)
MIC [42]: 4 µM (≈ 10.4 µg/mL)
MIC [43]: 4 µM (≈ 10.4 µg/mL)
MIC [44]: 4 µM (≈ 10.4 µg/mL)
MIC [45]: 1 µM (≈ 2.6 µg/mL)
MIC [46]: 2 µM (≈ 5.2 µg/mL)
MIC [47]: 1 µM (≈ 2.6 µg/mL)
MIC [48]: 1 µM (≈ 2.6 µg/mL)
SMILES: CC[C@H](C)[C@H](NC(=O)CNC(=O)[C@H](CCCN=C(N)N)NC(=O)[C@H](Cc1ccccc1)NC(=O)[C@@H](NC(=O)[C@H](Cc1cnc[nH]1)NC(=O)[C@H](Cc1cnc[nH]1)NC(=O)[C@H](Cc1ccccc1)NC(=O)[C@@H](N)Cc1ccccc1)[C@@H](C)CC)C(=O)N[C@@H](CCCCN)C(=O)N[C@@H](Cc1cnc[nH]1)C(=O)N[C@H](C(=O)NCC(=O)N[C@@H](CCCCN)C(=O)N[C@H](C(=O)N[C@H](C(=O)N[C@@H](Cc1cnc[nH]1)C(=O)N[C@@H](CCCN=C(N)N)C(=O)N[C@@H](CC(C)C)C(=O)N[C@H](C(=O)N[C@H](C(=O)NCC(=O)O)[C@@H](C)O)C(C)C)[C@@H](C)CC)[C@@H](C)O)C(C)C [FFHHIFRGIKHVGKTIHRLVTG]

From DBAASP
